Laboratory results published in patent publication US20240041042A1, “1-(PYRIDYL)-5-AZINYLPYRAZOLE DERIVATIVES, AND THEIR USE FOR CONTROL OF UNDESIRED PLANT GROWTH” (Bayer Aktiengesellschaft, priority 2020, published 2024).
Where two headings read alike, the source gives them in different places.

What was measured:
Type in all cases: in vivo
Lolium rigidum (LOLRI) = assay: Post-emergence herbicidal action against LOLRI
Method in brief: (§1)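 Post-emergence greenhouse spray, one-leaf stage, 600 l/ha water plus 0.5% additive; WP or EC formulations; application rates 320 g/ha or lower. Visual % damage vs untreated controls at ~3 weeks.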

[1] = tested on: Pharbitis purpurea (PHBPU); assay: Pre-emergence herbicidal action against PHBPU; details: dosage 320 g/ha
Method in brief: (§2)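 Pre-emergence soil-surface spray of compound, formulated as wettable powder or emulsion concentrate, in aqueous suspension or emulsion with 0.5% additive (600 l/ha; rate 320 g/ha or less). Activity rated visually after roughly 3 weeks in the greenhouse as a percentage of untreated controls, 0% meaning no difference.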

[2] = tested on: Echinochloa crus-galli (ECHCG); assay: Pre-emergence herbicidal action against ECHCG
Method in brief: as §2

Zea mays (ZEAMX) [3] = details: 20 g/ha; crop plant compatibility, effect vs untreated controls
Method in brief: (§3)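 Scoring: visual, % of untreated control, about 3 weeks after a pre-emergence application to the soil surface. Application used WP or EC formulations diluted in water with 0.5% additive at 600 l/ha; dosage levels are marked by suffixes a, b and c.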

Oryza sativa (ORYSA) [4] = details: 20 g/ha; crop plant compatibility, effect vs untreated controls
Method in brief: as §3

[5] = tested on: Polygonum convolvulus (POLCO); assay: Post-emergence herbicidal action against POLCO
Method in brief: as §1

[6] = tested on: Digitaria sanguinalis (DIGSA); assay: Pre-emergence herbicidal action against DIGSA
Method in brief: as §2

[7] = tested on: Digitaria sanguinalis (DIGSA); assay: Post-emergence herbicidal action against DIGSA; details: visual rating about 3 weeks after treatment
Method in brief: as §1

Glycine max (GLXMA) = details: 20 g/ha; crop plant compatibility, effect vs untreated controls
Method in brief: as §3

Zea mays (ZEAMX) [8] = tested on: Zea mays (ZEAMX)
Method in brief: (§4)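 Visual rating (% effect vs. untreated plants; 100% = plant death) made about 3 weeks after treatment. Plants had been sprayed at one-leaf stage, 2–3 weeks post-sowing, with aqueous WP/EC preparations containing 0.5% additive, 600 l/ha water volume; a, b, c mark dose levels.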

Oryza sativa (ORYSA) [9] = details: crop plant compatibility
Method in brief: as §4

[10] = 80 g/ha, visual scoring after about 3 weeks vs untreated controls
[11] = 80 g/ha, effect in comparison to untreated controls

Row | Pre-emergence action against ZEAMX (Zea mays (ZEAMX) [3]) [%] | Pre-emergence action against ORYSA (Oryza sativa (ORYSA) [4]) [%] | Pre-emergence action against GLXMA (Glycine max (GLXMA)) [%] | Post-emergence action against ZEAMX in % (crop plant compatibility) (Zea mays (ZEAMX) [8]; 20 g/ha, ZEAMX, effect in comparison to untreated controls) [%] | Post-emergence action against ORYSA in % (Oryza sativa (ORYSA) [9]; 20 g/ha, effect vs untreated controls) [%] | Post-emergence action against ORYSA in % (Oryza sativa (ORYSA) [9]; [11]) [%] | Post-emergence action against ZEAMX in % (Zea mays (ZEAMX) [8]; crop plant compatibility, 80 g/ha, effect vs untreated controls) [%] | SMILES | Post-emergence action against LOLRI in % (Lolium rigidum (LOLRI); dosage 80 g/ha) [%] | Post-emergence action against LOLRI in % (Lolium rigidum (LOLRI); dosage 320 g/ha) [%] | Pre-emergence action against PHBPU in % [1] [%] | Pre-emergence action against ECHCG in % ([2]; dosage 320 g/ha) [%] | Post-emergence action against POLCO in % ([5]; dosage 80 g/ha) [%] | Post-emergence action against POLCO in % ([5]; dosage 320 g/ha) [%] | Pre-emergence action against ECHCG in % ([2]; dosage 80 g/ha) [%] | Pre-emergence action against DIGSA in % [6, 10] [%] | Pre-emergence action against DIGSA in % ([6]; dosage 320 g/ha) [%] | Post-emergence action against DIGSA in % ([7]; 80 g/ha) [%] | Post-emergence action against DIGSA in % ([7]; 320 g/ha) [%]
1 | 0 | 0 | – | – | – | – | – | CCOC(=O)COc1nn(-c2ccccn2)c(-c2ccc(F)nc2)c1Br [Example I-02] | 80 | 80 | 90 | 100 | 80 | 80 | – | – | – | – | –
2 | – | 0 | 10 | 10 | 0 | 10 | – | O=C(O)COc1nn(-c2ncccc2F)c(-c2ccc(F)nc2)c1Br [Example I-17] | – | 80 | 90 | 90 | – | – | 90 | 100 | 100 | 90 | 90
3 | – | – | – | – | – | 0 | 0 | COC(=O)COc1nn(-c2ncccc2F)c(-c2ccc(F)nc2)c1Br [Example I-07] | – | 90 | 90 | 100 | 80 | 80 | – | 100 | 100 | 90 | 90
